In ChEMBL document CHEMBL5338747, “Discovery of Quaternized Pyridine-Thiazole-Pleuromutilin Derivatives with Broad-Spectrum Antibacterial and Potent Anti-MRSA Activity” (J Med Chem, 2023):
Calls of active or inactive are those of the source. No cut-off for these calls is given here.

Assays:
[1] = tested on: Staphylococcus aureus; assay: Bactericidal activity against methicillin-resistant Staphylococcus aureus ATCC 33591 assessed as reduction in bacterial colonies formation at MIC incubated for 24 hrs in MHB followed by culturing on agar plate for 24 hrs by time-kill kinetics based analysis; assay type: functional; conditions: time 48 hrs
[2] = tested on: Staphylococcus aureus; assay: Antibacterial activity against methicillin-resistant Staphylococcus aureus ATCC 33591 assessed as inhibition of bacterial growth incubated for 24 hrs by broth microdilution method; assay type: functional
[3] = tested on: Acinetobacter baumannii; assay: Antibacterial activity against Acinetobacter baumannii ATCC 19606 assessed as inhibition of bacterial growth incubated for 24 hrs by broth microdilution method; assay type: functional
[4] = tested on: Staphylococcus aureus; assay: Antibacterial activity against methicillin-resistant Staphylococcus aureus 222 assessed as inhibition of bacterial growth incubated for 24 hrs by broth microdilution method; assay type: functional
[5] = tested on: Staphylococcus aureus; assay: Antibacterial activity against […] assessed as inhibition of bacterial growth incubated for 24 hrs by broth microdilution method; assay type: functional; conditions: ATCC 29213
[6] = tested on: Staphylococcus aureus; assay: Antibacterial activity against methicillin-resistant Staphylococcus aureus 171 assessed as inhibition of bacterial growth incubated for 24 hrs by broth microdilution method; assay type: functional
[7] = tested on: Enterococcus; assay: Antibacterial activity against vancomycin-resistant Enterococcus 80 assessed as inhibition of bacterial growth incubated for 24 hrs by broth microdilution method; assay type: functional
[8] = tested on: Cell membrane; assay: Disruption of bacterial cell membrane in methicillin-resistant Staphylococcus aureus ATCC 33591 assessed as increase in red fluorescence intensity at MIC incubated for 2 hrs by MycoLightGreen1198/PI staining based confocal laser scanning microscopy; assay type: subcellular
[9] = tested on: Metamycoplasma hominis; assay: Anti-mycoplasma activity against Mycoplasma hominis PG-21 ATCC23114 assessed as inhibition of mycoplasma growth measured after 7 days by broth microdilution method; assay type: functional; conditions: PG-21 ATCC23114, 168 h, time 7 day
[10] = tested on: Staphylococcus aureus; assay: Antibacterial activity against methicillin-resistant Staphylococcus aureus ATCC 33591 infected in Kunming mouse assessed as reduction in inflammatory cell infiltration in lungs at 3 to 10 mg/kg, ip for 2 days starting from 1 hr post-infection by hematoxylin-eosin staining based analysis; assay type: functional, organism-based; conditions: dose 3-10 mg/kg, time 2.0 day
[11] = Cytotoxicity against human HEK293 cells assessed as reduction in cell viability measured after 48 hrs by CCK8 assay; assay type: toxicity, cell-based
[12] = tested on: Mycoplasmoides gallisepticum; assay: Potency index, ratio of tiamulin MIC to test compound MIC against anti-mycoplasma activity against Mycoplasma gallisepticum R NCTC10115; assay type: functional
[13] = Aqueous solubility of the compound in physiological saline measured after 12 hrs by UV spectrophotometric analysis; assay type: physicochemical
[14] = tested on: Escherichia coli; assay: Antibacterial activity against Escherichia coli ATCC 25922 assessed as inhibition of bacterial growth incubated for 24 hrs by broth microdilution method; assay type: functional
[15] = tested on: Staphylococcus aureus; assay: Antibacterial activity against methicillin-resistant Staphylococcus aureus 206 assessed as inhibition of bacterial growth incubated for 24 hrs by broth microdilution method; assay type: functional
[16] = tested on: Pseudomonas aeruginosa; assay: Antibacterial activity against multidrug-resistant Pseudomonas aeruginosa 126 assessed as inhibition of bacterial growth incubated for 24 hrs by broth microdilution method; assay type: functional
[17] = tested on: Cell membrane; assay: Disruption of bacterial cell membrane in Escherichia coli ATCC 25922 assessed as increase in fluorescence intensity by DiBAC4(3) dye based fluorescence analysis; assay type: subcellular
[18] = tested on: Klebsiella pneumoniae; assay: Antibacterial activity against multidrug-resistant Klebsiella pneumoniae 893 assessed as inhibition of bacterial growth incubated for 24 hrs by broth microdilution method; assay type: functional
[19] = tested on: Staphylococcus aureus; assay: Antibacterial activity against methicillin-resistant Staphylococcus aureus 575 assessed as inhibition of bacterial growth incubated for 24 hrs by broth microdilution method; assay type: functional
[20] = tested on: Staphylococcus aureus; assay: Antibacterial activity against methicillin-resistant Staphylococcus aureus ATCC 33591 infected in Kunming mouse assessed as animal survival rate at 10 mg/kg, ip for 7 days starting from 1 hr post-infection; assay type: functional; conditions: ATCC 33591, 168 h, time 7 day
[21] = tested on: Cell membrane; assay: Disruption of bacterial cell membrane in methicillin-resistant Staphylococcus aureus ATCC 33591 assessed as increase in fluorescence intensity by DiBAC4(3) dye based fluorescence analysis; assay type: subcellular
[22] = tested on: Staphylococcus aureus; assay: Disruption of biofilm formation in methicillin-resistant Staphylococcus aureus ATCC 33591 assessed as inhibition of biofilm formation at 4XMIC measured after 24 hrs by crystal violet staining based analysis; assay type: functional
[23] = tested on: Mesomycoplasma hyopneumoniae; assay: Anti-mycoplasma activity against Mycoplasma hyopneumoniae LH assessed as inhibition of mycoplasma growth measured after 7 days by broth microdilution method; assay type: functional; conditions: 168 h, time 7 day
[24] = tested on: Escherichia coli; assay: Disruption of biofilm formation in Escherichia coli ATCC 25922 assessed as inhibition of biofilm formation at MIC measured after 24 hrs by crystal violet staining based analysis; assay type: functional
[25] = Clearance in Sprague-Dawley rat at 1 mg/kg, iv by LC-MS analysis; assay type: ADME, organism-based; conditions: in vivo
[26] = tested on: Escherichia coli; assay: Antibacterial activity against Escherichia coli CMCC 44103 assessed as inhibition of bacterial growth incubated for 24 hrs by broth microdilution method; assay type: functional
[27] = tested on: Mycoplasmoides gallisepticum; assay: Anti-mycoplasma activity against Mycoplasma gallisepticum R NCTC10115 assessed as inhibition of mycoplasma growth measured after 7 days by broth microdilution method; assay type: functional; conditions: R NCTC10115, 168 h, time 7 day
[28] = tested on: Staphylococcus aureus; assay: Bactericidal activity against methicillin-resistant Staphylococcus aureus ATCC 33591 assessed as reduction in bacterial colonies formation at 4XMIC incubated for 8 hrs in MHB followed by culturing on agar plate for 24 hrs by time-kill kinetics based analysis; assay type: functional; set-up: scale not given: the % may be the effect or the level left; conditions: time 32 hrs
[29] = tested on: Cell membrane; assay: Disruption of bacterial cell membrane in Escherichia coli ATCC 25922 assessed as increase in red fluorescence intensity at MIC incubated for 2 hrs by MycoLightGreen1198/PI staining based confocal laser scanning microscopy
[30] = tested on: Cell membrane; assay: Disruption of bacterial cell membrane in Escherichia coli ATCC 25922 incubated for 4 hrs by FESEM analysis; assay type: subcellular
[31] = Cmax in Sprague-Dawley rat at 1 mg/kg, iv by LC-MS analysis; assay type: ADME, organism-based; set-up: dose 1 mg/kg, route iv; conditions: in vivo
[32] = tested on: Staphylococcus aureus; assay: Antibacterial activity against methicillin-resistant Staphylococcus aureus ATCC 33591 infected in Kunming mouse assessed as animal survival rate at 5 mg/kg, ip for 7 days starting from 1 hr post-infection; assay type: functional; conditions: ATCC 33591, 168 h, time 7 day
[33] = tested on: Mycoplasma genitalium; assay: Anti-mycoplasma activity against Mycoplasma genitalium G37 ATCC33530 assessed as inhibition of mycoplasma growth measured after 7 days by broth microdilution method; assay type: functional; conditions: Mycoplasmoides genitalium, G37 ATCC33530, 168 h; time 7 day
[34] = tested on: Staphylococcus aureus; assay: Antibacterial activity against methicillin-resistant Staphylococcus aureus 596 assessed as inhibition of bacterial growth incubated for 24 hrs by broth microdilution method; assay type: functional
[35] = tested on: Acinetobacter baumannii; assay: Antibacterial activity against carbapenem-resistant Acinetobacter baumannii 882 assessed as inhibition of bacterial growth incubated for 24 hrs by broth microdilution method; assay type: functional
[36] = tested on: Mycoplasmopsis synoviae; assay: Potency index, ratio of tiamulin MIC to test compound MIC against anti-mycoplasma activity against Mycoplasma synoviae WVU1853 NCTC10124; assay type: functional
[37] = tested on: Cell membrane; assay: Disruption of bacterial cell membrane in Escherichia coli ATCC 25922 assessed as reduction in green fluorescence intensity at MIC incubated for 2 hrs by MycoLightGreen1198/PI staining based confocal laser scanning microscopy
[38] = Tmax in Sprague-Dawley rat at 1 mg/kg, iv by LC-MS analysis; assay type: ADME, organism-based; conditions: in vivo

SMILES: C=C[C@]1(C)C[C@@H](OC(=O)CSc2nc(-c3cc[n+](Cc4ccc(C)cc4)cc3)cs2)[C@]2(C)[C@H](C)CC[C@]3(CCC(=O)[C@H]32)[C@@H](C)[C@@H]1O.[Br-]
- Activity [1]: 4.5 log10CFU/ml
- MIC [2]: 1 µg/mL
- MIC [3]: 1 µg/mL
- MIC [4]: 1 µg/mL
- MIC [5]: 0.062 µg/mL
- MIC [6]: 4 µg/mL
- MIC [7]: 2 µg/mL
- Activity [8]: Active
- MIC [9]: 0.015 µg/mL
- Activity [10]: Active
- CC50 at 48 h [11]: > 100 µM
- Ratio [12]: 10
- solubility at 12 h [13]: 862 µM
- MIC [14]: 0.062 µg/mL
- MIC [15]: 2 µg/mL
- MIC [16]: 64 µg/mL
- Activity [17]: Dose-Dependent Effect
- MIC [18]: 16 µg/mL
- MIC [19]: 8 µg/mL
- survival at 10 mg/kg [20]: 71.4%
- Activity [21]: Dose-Dependent Effect
- inhibition (INH) [22]: 86.43%
- MIC [23]: 0.002 µg/mL
- inhibition (INH) [24]: 59.04%
- clearance [25]: 31.7 mL/min/kg
- MIC [26]: 0.5 µg/mL
- MIC [27]: 0.004 µg/mL
- Activity [28]: 100%
- Activity [29]: Active
- Activity [30]: Dose-Dependent Effect
- Cmax [31]: 9670 ng/mL
- survival at 5 mg/kg [32]: 57.1%
- MIC [33]: 0.015 µg/mL
- MIC [34]: 2 µg/mL
- MIC [35]: 8 µg/mL
- Ratio [36]: 10
- Activity [37]: Active
- Tmax [38]: 1.8 min
